Drawing on ChEMBL document CHEMBL1127129, “N,N-disubstituted acetamidines as high affinity sigma receptor ligands” (Bioorg Med Chem Lett, 1993), this text covers IC50 for seven compounds.

SMILES strings stand for the structures.

The assay concerns the target Glutamate NMDA receptor. As to the kind of experiment: The compound was evaluated for binding affinity against NMDA receptor ion-channel site using [3H]-MK 801 radioligand in rat brain membranes. The format is cell membranes.
What is called IC50 is the concentration that inhibits the measured activity by half. As for `C/C(=N\c1ccc(Br)cc1C)Nc1ccc(Br)cc1C`, the half-maximal inhibitory concentration (IC50) was found to be 9.11 µM.

`C/C(=N\C12CC3CC(CC(C3)C1)C2)Nc1ccccc1C`: the half-inhibitory concentration (IC50) was found to be 10 µM.

Turning to `C/C(=N\C1CC2CCC1C2)Nc1ccccc1C` (configuration not stated), the IC50 worked out at 80 µM.

As for `C/C(=N\c1ccccc1C)Nc1ccccc1C`, the IC50 came to 10 µM.

In turn, `C/C(=N\C1CCCCC1)NC12CC3CC(CC(C3)C1)C2` came in with an IC50 of 10 µM. This lies in the double-digit micromolar range.

`C/C(=N\C1CCCCC1)Nc1ccccc1C` displayed an IC50 of 10 µM.

Take `C/C(=N\C12CC3CC(CC(C3)C1)C2)NC12CC3CC(CC(C3)C1)C2`: the half-maximal inhibitory concentration (IC50) amounted to 10 µM.
